Measured values from patent US10981926B2 (Janssen Pharmaceutica NV, priority 2016, dated 2021).

Assays:
Type in all cases: cell-based
[1] = molecular target: T1, F876L mutant Androgen Receptor (AR-F876L) (Homo sapiens (Human), UniProt P10275, F877L); experiment: LNCaP-AR-F876L ANT reporter assay (antagonist mode); settings: for Emax: read-out: LNCaP-AR-F876L ANT MAX % Inh; for IC50: read-out: LNCaP-AR-F876L ANT pIC50 (converted)
[2] = molecular target: T2, wild-type Androgen Receptor (AR-wt) (Homo sapiens (Human), UniProt P10275); experiment: LNCaP-AR-wt ANT reporter assay (antagonist mode); settings: for Emax: read-out: LNCaP-AR-wt ANT MAX % Inh; for IC50: read-out: LNCaP-AR-wt ANT pIC50 (converted)
[3] = molecular target: T2, wild-type Androgen Receptor (AR-wt); experiment: LNCaP-AR-wt AG reporter assay (agonist mode); settings: for Emax: read-out: LNCaP-AR-wt AG MAX % Stim; for EC50: read-out: LNCaP-AR-wt AG pEC50 (converted)
[4] = molecular target: T1, F876L mutant Androgen Receptor (AR-F876L); experiment: LNCaP-AR-F876L AG reporter assay (agonist mode); settings: for Emax: read-out: LNCaP-AR-F876L AG MAX % Stim; for EC50: read-out: LNCaP-AR-F876L AG pEC50 (converted)
[5] = antagonist mode, maximum % inhibition of R1881 control response over tested concentration range
[6] = antagonist mode, pIC50 = −Log10(IC50 in Molar)
[7] = agonist mode, maximum % stimulation over tested concentration range
[8] = agonist mode, pEC50 = −Log10(EC50 in Molar)
[9] = maximum % inhibition of R1881 control response over the tested concentration range
[10] = maximum % stimulation (agonist response) over the tested concentration range

T2 sequence (P10275 whole entry): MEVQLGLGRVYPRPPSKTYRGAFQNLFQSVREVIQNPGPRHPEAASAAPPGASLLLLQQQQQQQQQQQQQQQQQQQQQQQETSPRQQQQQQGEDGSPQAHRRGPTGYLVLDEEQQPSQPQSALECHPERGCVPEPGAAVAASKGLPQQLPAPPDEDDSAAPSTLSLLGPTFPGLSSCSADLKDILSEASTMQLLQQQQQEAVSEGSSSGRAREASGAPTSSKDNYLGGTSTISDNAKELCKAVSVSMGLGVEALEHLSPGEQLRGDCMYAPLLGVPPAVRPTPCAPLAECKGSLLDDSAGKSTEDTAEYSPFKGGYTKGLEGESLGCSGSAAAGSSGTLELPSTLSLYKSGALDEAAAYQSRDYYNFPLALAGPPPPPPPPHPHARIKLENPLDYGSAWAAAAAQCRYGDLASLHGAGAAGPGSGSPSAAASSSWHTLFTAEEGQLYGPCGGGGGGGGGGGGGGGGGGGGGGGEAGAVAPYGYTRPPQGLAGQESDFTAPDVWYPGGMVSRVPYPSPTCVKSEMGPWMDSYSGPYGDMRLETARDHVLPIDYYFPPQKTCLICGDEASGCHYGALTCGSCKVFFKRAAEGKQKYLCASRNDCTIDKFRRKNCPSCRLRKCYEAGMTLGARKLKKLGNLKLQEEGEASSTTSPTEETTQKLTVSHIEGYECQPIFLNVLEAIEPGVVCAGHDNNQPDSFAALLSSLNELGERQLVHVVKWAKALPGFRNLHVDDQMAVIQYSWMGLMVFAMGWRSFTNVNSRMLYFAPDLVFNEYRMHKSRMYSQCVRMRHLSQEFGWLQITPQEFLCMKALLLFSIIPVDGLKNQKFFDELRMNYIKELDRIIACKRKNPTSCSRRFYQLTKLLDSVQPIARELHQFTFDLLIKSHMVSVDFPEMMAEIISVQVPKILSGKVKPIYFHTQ
T1 sequence (P10275 whole entry F877L): as the sequence (P10275 whole entry) above, with F877L counted along it

Compound | Emax [1, 5] | IC50 [1, 6] | Emax [2, 5] | IC50 [2, 6] | Emax [3, 7] | EC50 [3, 8] | Emax [4, 7] | EC50 [4, 8] | Emax [1, 9] | Emax [2, 9] | Emax [3, 10] | Emax [4, 10] | LNCaP-AR-F876L ANT pIC50 [1, 6] | LNCaP-AR-F876L ANT MAX % Inh [1, 9] | LNCaP-AR-wt ANT pIC50 [2, 6] | LNCaP-AR-wt ANT MAX % Inh [2, 9] | LNCaP-AR-wt AG pEC50 [3, 8] | LNCaP-AR-wt AG MAX % Stim [3, 10] | LNCaP-AR-F876L AG pEC50 [4, 8] | LNCaP-AR-F876L AG MAX % Stim [4, 10]
N#Cc1ncc(N2C(=O)C3(CCC3)N(c3ccc4[nH]c(CCO)nc4c3)C2=S)cc1C(F)(F)F | 100% | 0.832 µM | 0% | 1.74 µM | 0.4% | > 15.1 µM | 0.1% | > 15.1 µM | – | – | – | – | – | – | – | – | – | – | – | –
3-chloro-5-[8-[1-(2-methoxyethyl)indazol-5-yl]-5-oxo-7-thioxo-6,8-diazaspiro[3.4]octan-6-yl]pyridine-2-carbonitrile [Cpd 171] | – | – | – | – | – | – | – | – | – | – | – | – | 6.80 | 100.8% | 6.45 | 101.3% | <4.82 | 0.2% | <4.82 | 0.1%
N#Cc1ncc(N2C(=O)C3(CCC3)N(c3ccc(OC4CCNCC4(F)F)cc3)C2=S)cc1C(F)(F)F (racemic) [Cpd 136, (R,S)-5-[8-[4-[(3,3-difluoro-4-piperidyl)oxy]phenyl]-5-oxo-7-thioxo-6,8-diazaspiro[3.4]octan-6-yl]-3-(trifluoromethyl)pyridine-2-carbonitrile] | – | 0.126 µM | – | 0.132 µM | – | > 15.1 µM | – | > 15.1 µM | 102% | 105% | -0.1% | 0.3% | – | – | – | – | – | – | – | –
CN1CCC(Oc2ccc(N3C(=S)N(c4cnc(C#N)c(C(F)(F)F)c4)C(=O)C34CCC4)cc2)C(F)(F)C1 (racemic) [Cpd 137, (R,S)-5-[8-[4-[(3,3-difluoro-1-methyl-4-piperidyl)oxy]phenyl]-5-oxo-7-thioxo-6,8-diazaspiro[3.4]octan-6-yl]-3-(trifluoromethyl)pyridine-2-carbonitrile] | – | 0.0832 µM | – | 0.049 µM | – | > 15.1 µM | – | > 15.1 µM | 98.7% | 102% | 0.3% | 0.9% | – | – | – | – | – | – | – | –

Second part, led by results:

Emax [1, 5] | IC50 [1, 6] | Emax [2, 5] | IC50 [2, 6] | Emax [3, 7] | EC50 [3, 8] | Emax [4, 7] | EC50 [4, 8] | Emax [1, 9] | Emax [2, 9] | Emax [3, 10] | Emax [4, 10] | Compound | LNCaP-AR-F876L ANT pIC50 [1, 6] | LNCaP-AR-F876L ANT MAX % Inh [1, 9] | LNCaP-AR-wt ANT pIC50 [2, 6] | LNCaP-AR-wt ANT MAX % Inh [2, 9] | LNCaP-AR-wt AG pEC50 [3, 8] | LNCaP-AR-wt AG MAX % Stim [3, 10] | LNCaP-AR-F876L AG pEC50 [4, 8] | LNCaP-AR-F876L AG MAX % Stim [4, 10]
– | 0.145 µM | – | 0.234 µM | – | > 15.1 µM | – | > 15.1 µM | 104% | 106% | 0% | -0.1% | N#Cc1ncc(N2C(=O)C3(CCC3)N(c3ccc(OC4CCNC5(CCC5)C4)cc3)C2=S)cc1C(F)(F)F (racemic) [Cpd 151, (R,S)-5-[8-[4-(9-azaspiro[3.5]nonan-6-yloxy)phenyl]-5-oxo-7-thioxo-6,8-diazaspiro[3.4]octan-6-yl]-3-(trifluoromethyl)pyridine-2-carbonitrile] | – | – | – | – | – | – | – | –
– | 0.427 µM | – | 0.316 µM | – | > 15.1 µM | – | > 15.1 µM | 95.6% | 100% | 0.3% | 2.3% | CN1CC[C@@H](Oc2ccc(N3C(=S)N(c4cnc(C#N)c(C(F)(F)F)c4)C(=O)C34CCC4)cc2)C[C@H]1C(F)(F)F (racemic) [Cpd 158, 5-[8-[4-[[(2SR, 4RS)-1-methyl-2-(trifluoromethyl)-4-piperidyl]oxy]phenyl]-5-oxo-7-thioxo-6,8-diazaspiro[3.4]octan-6-yl]-3-(trifluoromethyl)pyridine-2-carbonitrile] | – | – | – | – | – | – | – | –
– | 0.234 µM | – | 0.174 µM | – | > 15.1 µM | – | > 15.1 µM | 102% | 104% | 0.3% | 0% | CN1CCC(Oc2ccc(N3C(=S)N(c4cnc(C#N)c(C(F)(F)F)c4)C(=O)C34CCC4)cc2)CC12CCC2 (racemic) [Cpd 178, (R,S)-5-[8-[4-[(9-methyl-9-azaspiro[3.5]nonan-6-yl)oxy]phenyl]-5-oxo-7-thioxo-6,8-diazaspiro[3.4]octan-6-yl]-3-(trifluoromethyl)pyridine-2-carbonitrile] | – | – | – | – | – | – | – | –
101% | 0.129 µM | – | – | 0% | > 15.1 µM | 0% | > 15.1 µM | – | – | – | – | COc1cc(N2C(=O)C3(CCC3)N(c3ccc(CN4CCNCC4)cc3)C2=S)cnc1C#N [Cpd 229, 3-methoxy-5-[5-oxo-8-[4-(piperazin-1-ylmethyl)phenyl]-7-thioxo-6,8-diazaspiro[3.4]octan-6-yl]pyridine-2-carbonitrile] | – | – | – | – | – | – | – | –
